The test system of one assay is Helicobacter pyroli. Put plainly: AHP: Antibacterial Activity Test Against Helicobacter pyroli. Type of assay: cell-based, Helicobacter pyroli NCTC 11637. The note with it: for MIC: Helicobacter, NCTC11637, 168 h, H. pyroli NCTC 11637, agar dilution, 7 days, read-out: AHP: minimum inhibitory concentration (MIC). On the procedure: AHP: Antibacterial […] Against Helicobacter pyroli i)Meaning The minimum inhibitory concentration (MIC) against Helicobacter pyroli (microaerophilic gram-negative bacterium which is supposed to deeply involve in pathogenesis, relapse, and recrudescence of ulcer, referred to as "HP" in the following) is measured so as to find out compounds which have antimicrobial activity against Helicobacter pyroli. ii)Method MICs were determined by the agar dilution method. […] Grown colonies were transfered to the same plate and cultured for 3 days under the same condition. […] A 1,000 μg/ml solution of the sample compound containing DMSO not more than 25% was […] diluted 2-fold in sterile purified water. 100 μl volume from each dilution was mixed thoroughly with 900 μl of brucella agar supplemented with 5% horse blood and solidified in a 24 well micro plate. 10 μl of the bacterial suspension (about 10^3 cfu) was inoculated on this plate and cultured for 7 days under the same condition as that of preculture.
(In agar dilution, organisms are placed on agar that contains the substance at set levels.)

The subject of another assay is stress ulcer formation. Put plainly: WIS: Restraint and Water Immersion Stress-Induced Ulcer Inhibition Test. In kind it is in vivo, rat (male Crj:SD or Slc:SD). The following applies: rat; for WIS: ulcer formation inhibitory rate: 100 mg/kg oral, 7 hours stress; for anti-ulcer effect (in words): in vivo. How it is done:
WIS: Restraint and Water Immersion Stress-Induced Ulcer Inhibition Test
The degree of inhibition of the stress ulcer formation is tested.
Male Crj:SDor Slc:SD rats (6 to 7-week-old) were fasted overnight, but allowed free access to water. Each group has 5 to 8 of these rats. The sample compound was dissolved or suspended in an aqueous solution of 0.3% sodium carboxymethylcellulose or 0.05% Tween 80 and then was orally administered (100 mg/10 ml/kg). To a control group, the vehicle was administered. 10 minuts later, the rats were placed in a stress cage and immersed to the level of xipfoid process in a water bath (21° C.) for 7 hours. At the end of the stress, the rats were sacrificed by inhalation of ether or carbon dioxide. Then, the stomach of each was removed, inflated by injecting 10 ml of 5% formalin neutral buffer solution, and immersed in 1% formalin neutral buffer solution for 30 minutes or more to be fixed. The stomach was incised along the greater curvature and then the length of each erosion in the glandular portion was determined under dissecting microscope. The sum of the length of erosions per stomach was defined as ulcer index (UI).
The effect obtained when 100 mg/kg of the sample compound had been administered was expressed as ulcer formation inhibitory rate (%) as follows:
ulcer formation inhibitory rate (%)=[1-(UI in sample group/UI in control group)]×100

The test system of assay [1] is isolated gastric fundic gland. Briefly: CAP: Acid Secretion Inhibition Test In Vitro ([14C]-aminopyrine uptake). In kind it is cell-based, rabbit (male Japanese White). The note with it: for inhibition at 10 µM: Oryctolagus cuniculus, read-out: CAP: acid secretion inhibitory rate. How it is done: CAP: Acid Secretion Inhibition Test In Vitro
The acid secretion inhibitory activity in a cell level is studied. It can also be used for studying the mechanism of the effect. […]
ii-a) Preparation of isolated gastric fundus gland suspension
First, an isolated gastric fundic gland sample was prepared. Namely, a male Japanese White rabbit (2.5 to 3 kg) was anesthetized to death with Nembutal™ and then the abdomen was incised. Immediately thereafter, the stomach was removed and, after its pyloric and cardiac antrum were severed, incised along its greater curvature into two sheets. The gastric contents adhering to the mucosal surface was washed out with ice-cooled PBS (-) and then carefully washed therein. The gastric wall was spread on a cork board with its mucosal surface facing up and the feed and mucus thereon were completely removed with sterile gauze. The mucosa was separated therefrom by a spatula and then collected in ice-cooled PBS (-). After being washed twice with PBS (-), the mucosa was minced into 2-3mm^3 pieces by scissors. These pieces were further washed twice with a nutrient solution. The nutrient solution comprises 132.4 mM of NaCl, 5.4 mM of KCl, 5 mM of Na2 HPO4 ·12H2 O, 1 mM of NaH2 PO4 ·2H2 O, 1.2 mM of MgSO4, 1 mM of CaCl2, 25 mM of HEPES, 2mg/ml of glucose, and 1 mg/ml of BSA. Into 70 ml of the nutrient solution containing 1 mg/ml of collagenase, minced mucosal pieces were dispersed and intensely stirred in a conical flask with a stirrer at 37° C. for 40 to 60 minutes. During this period, 100% O2 was sprayed on the nutrient solution surface and the pH was appropriately measured such that it was immediately adjusted to pH 7.4, when the value was therebelow, with a base. The nutrient solution was added to the reaction solution so as to attain the total amount of about 200 ml. After being filtered through a mesh, the suspension was divisionally introduced into 50 ml centrifuge tubes and left for 15 minutes such that gastric fundic gland was deposited. The supernatant was repeatedly removed by an aspirator, dispersed in the nutrient solution, and then left such that the gastric fundic gland was washed three times. At this time, without using a pipette, the suspension was alternately introduced into two centrifuge tubes so as to effect dispersion. The number of cells was counted under microscope and adjusted to 1.6×10^6 cells/ml. […]
ii-b) [^14 C]-aminopyrine uptake test
Then, [^14 C]-aminopyrine uptake test was performed. After an Eppendorf tube was weighed, 10 μl (final concentration: 10^-5 M) of histamine dissolved in the above-mentioned nutrient solution, 10 μl (final concentration: 10^-5 M) of the test compound dissolved in DMSO, and 10 μl (final concentration: 0.05 μCi/ml) of [^14 C]-aminopyrine diluted with the nutrient solution were introduced therein and then 970 μl of the isolated gastric fundic gland suspension prepared above were added thereto. Subsequently, this mixture was shaken at 37° C. for 40 minutes at 125 cycles/minute. After being centrifuged for 30 minutes 200 μl of its supernatant was collected into a mini-vial, while the rest was removed by an aspirator. The gland pellet was completely dried as the tube with its lid being opened was kept for one night in a drying oven at 80° C. and then the lid was closed and the weight was determined at room temperature. Then 100 μl of 1N KOH were added thereto and the tube with its lid being closed was treated at 60° C. for 1 to 2 hours so as to dissolve the pellet. Then, the contents thereof were transferred to a mini-vial. Into the mini-vial containing the supernatant or gland pellet, 4 ml of Atomlite™ were added and then the radioactivity was measured by a liquid scintillation counter. Here, after the radioactivity of the gland pellet was corrected by using a sample in which 20 mM of NaSCN were added so as to cancel the hydrogen ion concentration gradient, the integration ratio of aminopyrine specifically trapped by the gland pellet was calculated. […]

Where [2] appears, read: final concentration 10^-5 M, histamine 10^-5 M, rabbit gastric fundic gland.

≈ marks a conversion by molar mass, not a printed value. Like-named read-outs stand apart in the source and are kept apart here. Bounds are passed on as bounds.

As for `COc1ccc(COc2ccc(C(=O)N3CCN(CC(C)C)CC3)cc2CC(C)C)cc1` [Example 14, 1-isobutyl-4-[3-isobutyl-4-(4-methoxybenzyloxy)benzoyl]piperazine], the MIC in the assay on Helicobacter pyroli came to 25 µg/mL (≈ 57 µM). Moreover, in the assay on stress ulcer formation, the “WIS: ulcer formation inhibitory rate” value is recorded as 76%. In assay [1] (setting [2]), the inhibition at 10 µM turned out to be 100%.
In the same order, the values of `CC(C)Cc1cc(C(=O)N2CCN(CC(C)C)CC2)ccc1OCc1ccc(Cl)cc1` [Example 17, 1-[4-(4-chlorobenzyloxy)-3-isobutylbenzoyl]-4-isobutylpiperazine] are 12.5 µg/mL (≈ 28.2 µM), 66% and 99%.
As to `CC(C)Cc1cc(C(=O)N2CCN(C(=O)C(C)C)CC2)ccc1OCc1ccc(F)cc1` [Example 6, 1-[4-(4-fluorobenzyloxy)-3-isobutylbenzoyl]-4-isobutyrylpiperazine], in the assay on Helicobacter pyroli, the MIC was below 3.13 µg/mL. Moreover, in the assay on stress ulcer formation, the “WIS: ulcer formation inhibitory rate” value is on record as 56% and the “anti-ulcer effect (in words)” value is on record as “sufficient effects”. Also, the inhibition at 10 µM in assay [1] (setting [2]) stood at 57%.
Regarding `CC(C)Cc1cc(C(=O)N2CCN(CC(C)C)CC2)ccc1OCc1ccc(F)cc1.Cl` [Example 22, 1-[4-(4-fluorobenzyloxy)-3-isobutylbenzoyl]-4-isobutylpiperazine hydrochloride], in the assay with Helicobacter pyroli, the “antibacterial activity against Helicobacter pyroli (in words)” value is recorded as “improved” and the MIC turned out to be 12.5 µg/mL. Further, in the assay with stress ulcer formation, the “WIS: ulcer formation inhibitory rate” value is recorded as 85% and the “anti-ulcer effect (in words)” value is “improved”. In assay [1] (setting [2]), the “CAP: acid secretion inhibitory rate” value amounted to 98%.
For `CC(C)Cc1cc(C(=O)N2CCN(CC(C)C)CC2)ccc1OCc1ccc(F)c(F)c1` [Example 26, 1-[4-(3,4-difluorobenzyloxy)-3-isobutylbenzoyl]-4-isobutylpiperazine], in the assay with Helicobacter pyroli, the MIC was determined as 12.5 µg/mL (≈ 28.1 µM). For the same compound, the “WIS: ulcer formation inhibitory rate” value in the assay on stress ulcer formation is 63%. Further, in assay [1] (setting [2]), the “CAP: acid secretion inhibitory rate” value was 99%.
Turning to `CC(C)Cc1cc(C(=O)N2CCN(CC(C)C)CC2)ccc1OCc1ccc(F)c(F)c1.Cl` [Example 23, 1-[4-(3,4-difluorobenzyloxy)-3-isobutylbenzoyl]-4-isobutylpiperazine hydrochloride], the MIC with Helicobacter pyroli worked out at 25 µg/mL. Further, the “WIS: ulcer formation inhibitory rate” value in the assay on stress ulcer formation is given as 83%. Further, in assay [1] (setting [2]), the inhibition at 10 µM came to 99%.
With `CC(C)Cc1cc(C(=O)N2CCN(CC(C)C)CC2)ccc1OCc1ccc(F)cc1.O=C(O)C(=O)O` [Example 25, 1-[4-(4-fluorobenzyloxy)-3-isobutylbenzoyl]-4-isobutylpiperazine oxalate], the MIC in the assay on Helicobacter pyroli was found to be 12.5 µg/mL. In addition, the “WIS: ulcer formation inhibitory rate” value in the assay on stress ulcer formation is 70%. Moreover, the “CAP: acid secretion inhibitory rate” value in assay [1] (setting [2]) is recorded as 95%.
Consider `CC(C)Cc1cc(C(=O)N2CCN(CC(C)C)CC2)ccc1OCc1ccccc1` [Example 16, 1-(4-benzyloxy-3-isobutylbenzoyl)-4-isobutylpiperazine], for which the MIC in the assay with Helicobacter pyroli worked out at 50 µg/mL (≈ 122 µM). The “WIS: ulcer formation inhibitory rate” value in the assay with stress ulcer formation is 72%. The inhibition at 10 µM in assay [1] (setting [2]) was 98%.
Take `CC(C)Cc1cc(C(=O)N2CCN(CCO)CC2)ccc1OCc1ccc(F)cc1` [Example 9, 1-[4-(4-fluorobenzyloxy)-3-isobutylbenzoyl]-4-(2-hydroxyethyl)piperazine]: in the assay on stress ulcer formation, the “WIS: ulcer formation inhibitory rate” value came out at 88% and the “anti-ulcer effect (in words)” value is “sufficient effects”. For the same compound, the inhibition at 10 µM in assay [1] (setting [2]) worked out at 100%.
In the same order, the values of `CC(C)Cc1cc(CN2CCN(CC(C)C)CC2)ccc1OCc1ccc(F)cc1.Cl.Cl` [Example 20, 1-[4-(4-fluorobenzyloxy)-3-isobutylbenzyl]-4-isobutylpiperazine dihydrochloride] are 82%, “effects were observed” and 100%.
In the case of `CC(C)Cc1cc(C(=O)N2CCN(CC(C)C)CC2)ccc1OCc1ccc([N+](=O)[O-])cc1.Cl` [Example 13, 1-isobutyl-4-[3-isobutyl-4-(4-nitrobenzyloxy)benzoyl]piperazine hydrochloride], in the assay on Helicobacter pyroli, the MIC is 12.5 µg/mL. In addition, the “WIS: ulcer formation inhibitory rate” value in the assay with stress ulcer formation is recorded as 77%.
Regarding `CC(C)CN1CCN(C(=O)c2ccc(OCc3ccc(F)cc3)c([N+](=O)[O-])c2)CC1.Cl` [Example 8, 1-[4-(4-fluorobenzyloxy)-3-nitrobenzoyl]-4-isobutylpiperazine hydrochloride], the “WIS: ulcer formation inhibitory rate” value in the assay with stress ulcer formation turned out to be 35%. The inhibition at 10 µM in assay [1] (setting [2]) came out at 100%.
As to `CC(C)Cc1cc(CC(=O)N2CCN(CC(C)C)CC2)ccc1OCc1ccccc1` [Example 15, 1-(4-benzyloxy-3-isobutylphenylacetyl)-4-isobutylpiperazine], in the assay on stress ulcer formation, the “WIS: ulcer formation inhibitory rate” value is 71% and the “anti-ulcer effect (in words)” value is “sufficient effects were observed”. Moreover, the inhibition at 10 µM in assay [1] is 99%.
As to `CC(C)CN1CCN(C(=O)c2ccc(OCc3ccccc3)cc2)CC1` [Example 3, 1-(4-benzyloxybenzoyl)-4-isobutylpiperazine], the “WIS: ulcer formation inhibitory rate” value in the assay on stress ulcer formation is reported as 69%. The inhibition at 10 µM in assay [1] (setting [2]) is 85%.
The matching figures for `CC(C)CN1CCN(C(=O)c2ccc(OCc3ccc(F)cc3)cc2)CC1.Cl` [Example 2, 1-[4-(4-fluorobenzyloxy)benzoyl]-4-isobutylpiperazine hydrochloride]: 79% and 99%.
The matching figures for `Cc1cccc(COc2ccc(C(=O)N3CCN(CC(C)C)CC3)cc2CC(C)C)c1F.Cl` [Example 12, 1-[4-(2-fluoro-3-methylbenzyloxy)-3-isobutylbenzoyl]-4-isobutylpiperazine hydrochloride]: 83% and 100%.
For the compound `CC(C)Cc1cc(C(=O)N2CCN(CC(C)C)CC2)ccc1OCc1ccccc1F.Cl` [Example 19, 1-[4-(2-fluorobenzyloxy)-3-isobutylbenzoyl]-4-isobutylpiperazine hydrochloride], in the assay with stress ulcer formation, the “WIS: ulcer formation inhibitory rate” value is reported as 64%. For the same compound, the “CAP: acid secretion inhibitory rate” value in assay [1] (setting [2]) is 95%.

Values taken from patent US5756505A, “N-acylpiperazine derivative, antibacterial drug and anti-ulcer drug” (Shiseido Co., Ltd., priority 1995, dated 1998).
